US10487093B2, “Heterocyclic compounds, in particular 2-oxo-4,4,5,5,6,6,7,7-octahydrobenzoxazole derivatives, and their use as antibacterial compounds” (priority 2016, dated 2019)
≈ marks a conversion by molar mass, not a printed value. Where two headings read alike, the source gives them in different places.

What was measured:
Assay type in all cases: cell-based
[1] = system: Bacteroides fragilis ATCC 25285; assay: MIC against anaerobes, agar dilution (CLSI), reference strain; conditions: ATCC25285, agar dilution, Brucella blood agar, 35° C., 48 h, anaerobic conditions, read-out: MIC, B. fragilis ATCC 25285
[2] = system: strains of Clostridium perfringens; assay: microbe, parasite or virus in culture
[3] = system: Bacteroides thetaiotaomicron ATCC 29741; assay: microbe, parasite or virus in culture; conditions: ATCC29741, 48 h, read-out: MIC, B. thetaiotaomicron ATCC
[4] = system: strains of Prevotella bivia; assay: MIC against anaerobes, agar dilution (CLSI), clinical isolates
[5] = system: strains of Parvimonas micra; assay: as above
[6] = system: strains of Propionibacterium acnes; assay: as above; conditions: Cutibacterium acnes
[7] = system: Clostridium difficile ATCC 700057; assay: MIC against anaerobes, agar dilution (CLSI), reference strain; conditions: Clostridioides difficile, ATCC700057, 48 h, read-out: MIC, C. difficile ATCC 700057
[8] = system: strains of Peptoniphilus harei; assay: MIC against anaerobes, agar dilution (CLSI), clinical isolates; conditions: Peptoniphilus harei, read-out: MIC
[9] = system: strains of Prevotella melaninogenica; assay: as above
[10] = system: strains of Peptostreptococcus anaerobius; assay: as above
[11] = system: strains of Finegoldia magna; assay: as above; conditions: Finegoldia magna, read-out: MIC
[12] = system: strains of Bacteroides fragilis; assay: as above
[13] = system: strains of Bacteroides thetaiotaomicron; assay: microbe, parasite or virus in culture

`Cc1ncc([N+](=O)[O-])n1CCO` [MTZ, metronidazole, reference compound] was tested, and the MIC [1] was < 1 µg/mL, the MIC ([2]; Clostridium perfringens strain 1) was 1 to 4 µg/mL (≈ 5.84 to 23.4 µM) and the MIC ([2]; Clostridium perfringens strain 2) was < 1 µg/mL. The MIC ([2]; Clostridium perfringens strain 3) was < 1 µg/mL, the MIC ([2]; Clostridium perfringens strain 4) was < 1 µg/mL and the MIC ([2]; Clostridium perfringens strain 5) was < 1 µg/mL. The MIC ([2]; Clostridium perfringens strain 6) was 1 to 4 µg/mL (≈ 5.84 to 23.4 µM), the MIC ([2]; Clostridium perfringens strain 7) was < 1 µg/mL and the MIC ([2]; Clostridium perfringens strain 8) was < 1 µg/mL. For the same compound, the MIC ([2]; Clostridium perfringens strain 9) was < 1 µg/mL, the MIC ([2]; Clostridium perfringens strain 10) was < 1 µg/mL and the MIC ([2]; Clostridium perfringens strain 11) was 1 to 4 µg/mL (≈ 5.84 to 23.4 µM). It also gave an MIC [3] of 1 to 4 µg/mL (≈ 5.84 to 23.4 µM), an MIC ([4]; Prevotella bivia strain 1) of 1 to 4 µg/mL (≈ 5.84 to 23.4 µM) and an MIC ([4]; Prevotella bivia strain 2) of 1 to 4 µg/mL (≈ 5.84 to 23.4 µM). The MIC ([4]; Prevotella bivia strain 3) was 1 to 4 µg/mL (≈ 5.84 to 23.4 µM), the MIC ([4]; Prevotella bivia strain 4) was 1 to 4 µg/mL (≈ 5.84 to 23.4 µM) and the MIC ([4]; Prevotella bivia strain 5) was 1 to 4 µg/mL (≈ 5.84 to 23.4 µM). For the same compound, the MIC ([4]; Prevotella bivia strain 6) was 1 to 4 µg/mL (≈ 5.84 to 23.4 µM), the MIC ([4]; Prevotella bivia strain 7) was 1 to 4 µg/mL (≈ 5.84 to 23.4 µM) and the MIC ([4]; Prevotella bivia strain 8) was 1 to 4 µg/mL (≈ 5.84 to 23.4 µM). The MIC ([4]; Prevotella bivia strain 9) was 1 to 4 µg/mL (≈ 5.84 to 23.4 µM), the MIC ([4]; Prevotella bivia strain 10) was 1 to 4 µg/mL (≈ 5.84 to 23.4 µM) and the MIC ([5]; Parvimonas micra strain 1) was 1 to 4 µg/mL (≈ 5.84 to 23.4 µM). The MIC ([5]; Parvimonas micra strain 2) was < 1 µg/mL, the MIC ([5]; Parvimonas micra strain 3) was < 1 µg/mL and the MIC ([5]; Parvimonas micra strain 4) was < 1 µg/mL. The MIC ([5]; Parvimonas micra strain 5) was < 1 µg/mL, the MIC ([5]; Parvimonas micra strain 6) was < 1 µg/mL and the MIC ([5]; Parvimonas micra strain 7) was < 1 µg/mL. The MIC ([5]; Parvimonas micra strain 8) was < 1 µg/mL, the MIC ([5]; Parvimonas micra strain 9) was < 1 µg/mL and the MIC ([5]; Parvimonas micra strain 10) was 1 to 4 µg/mL (≈ 5.84 to 23.4 µM). For the same compound, the MIC ([5]; Parvimonas micra strain 11) was < 1 µg/mL, the MIC ([5]; Parvimonas micra strain 12) was < 1 µg/mL and the MIC ([6]; Propionibacterium acnes strain 1) was 16 to 64 µg/mL (≈ 93.5 to 374 µM). The MIC ([6]; Propionibacterium acnes strain 2) was 16 to 64 µg/mL (≈ 93.5 to 374 µM), the MIC ([6]; Propionibacterium acnes strain 3) was 16 to 64 µg/mL (≈ 93.5 to 374 µM) and the MIC ([6]; Propionibacterium acnes strain 4) was 16 to 64 µg/mL (≈ 93.5 to 374 µM). It also gave an MIC ([6]; Propionibacterium acnes strain 5) of 16 to 64 µg/mL (≈ 93.5 to 374 µM), an MIC ([6]; Propionibacterium acnes strain 6) of 16 to 64 µg/mL (≈ 93.5 to 374 µM) and an MIC ([6]; Propionibacterium acnes strain 7) of 16 to 64 µg/mL (≈ 93.5 to 374 µM). The MIC ([6]; Propionibacterium acnes strain 8) was 16 to 64 µg/mL (≈ 93.5 to 374 µM), the MIC ([6]; Propionibacterium acnes strain 9) was 16 to 64 µg/mL (≈ 93.5 to 374 µM) and the MIC ([6]; Propionibacterium acnes strain 10) was 16 to 64 µg/mL (≈ 93.5 to 374 µM). For the same compound, the MIC ([6]; Propionibacterium acnes strain 11) was 16 to 64 µg/mL (≈ 93.5 to 374 µM), the MIC ([6]; Propionibacterium acnes strain 12) was 16 to 64 µg/mL (≈ 93.5 to 374 µM) and the MIC [7] was < 1 µg/mL. For the same compound, the MIC ([8]; Peptoniphilus harei strain 1) was 1 to 4 µg/mL (≈ 5.84 to 23.4 µM), the MIC ([8]; Peptoniphilus harei strain 2) was < 1 µg/mL and the MIC ([8]; Peptoniphilus harei strain 3) was < 1 µg/mL. For the same compound, the MIC ([8]; Peptoniphilus harei strain 4) was 1 to 4 µg/mL (≈ 5.84 to 23.4 µM), the MIC ([8]; Peptoniphilus harei strain 5) was < 1 µg/mL and the MIC ([8]; Peptoniphilus harei strain 6) was < 1 µg/mL. The MIC ([8]; Peptoniphilus harei strain 7) was < 1 µg/mL, the MIC ([8]; Peptoniphilus harei strain 8) was < 1 µg/mL and the MIC ([8]; Peptoniphilus harei strain 9) was 1 to 4 µg/mL (≈ 5.84 to 23.4 µM). For the same compound, the MIC ([8]; Peptoniphilus harei strain 10) was < 1 µg/mL, the MIC ([8]; Peptoniphilus harei strain 11) was < 1 µg/mL and the MIC ([8]; Peptoniphilus harei strain 12) was 1 to 4 µg/mL (≈ 5.84 to 23.4 µM). The MIC ([9]; Prevotella melaninogenica strain 1) was < 1 µg/mL, the MIC ([9]; Prevotella melaninogenica strain 2) was < 1 µg/mL and the MIC ([9]; Prevotella melaninogenica strain 3) was < 1 µg/mL. The MIC ([9]; Prevotella melaninogenica strain 4) was < 1 µg/mL, the MIC ([9]; Prevotella melaninogenica strain 5) was < 1 µg/mL and the MIC ([9]; Prevotella melaninogenica strain 6) was < 1 µg/mL. The MIC ([9]; Prevotella melaninogenica strain 7) was < 1 µg/mL, the MIC ([9]; Prevotella melaninogenica strain 8) was < 1 µg/mL and the MIC ([9]; Prevotella melaninogenica strain 9) was < 1 µg/mL. The MIC ([9]; Prevotella melaninogenica strain 10) was < 1 µg/mL, the MIC ([9]; Prevotella melaninogenica strain 11) was < 1 µg/mL and the MIC ([10]; Peptostreptococcus anaerobius strain 1) was < 1 µg/mL. The MIC ([10]; Peptostreptococcus anaerobius strain 2) was < 1 µg/mL, the MIC ([10]; Peptostreptococcus anaerobius strain 3) was < 1 µg/mL and the MIC ([10]; Peptostreptococcus anaerobius strain 4) was < 1 µg/mL. For the same compound, the MIC ([10]; Peptostreptococcus anaerobius strain 5) was < 1 µg/mL, the MIC ([10]; Peptostreptococcus anaerobius strain 6) was < 1 µg/mL and the MIC ([10]; Peptostreptococcus anaerobius strain 7) was < 1 µg/mL. The MIC ([10]; Peptostreptococcus anaerobius strain 8) was < 1 µg/mL, the MIC ([10]; Peptostreptococcus anaerobius strain 9) was < 1 µg/mL and the MIC ([10]; Peptostreptococcus anaerobius strain 10) was < 1 µg/mL. For the same compound, the MIC ([11]; Finegoldia magna strain 1) was < 1 µg/mL, the MIC ([11]; Finegoldia magna strain 2) was < 1 µg/mL and the MIC ([11]; Finegoldia magna strain 3) was 1 to 4 µg/mL (≈ 5.84 to 23.4 µM). For the same compound, the MIC ([11]; Finegoldia magna strain 4) was < 1 µg/mL, the MIC ([11]; Finegoldia magna strain 5) was 1 to 4 µg/mL (≈ 5.84 to 23.4 µM) and the MIC ([11]; Finegoldia magna strain 6) was 1 to 4 µg/mL (≈ 5.84 to 23.4 µM). It also gave an MIC ([11]; Finegoldia magna strain 7) of 1 to 4 µg/mL (≈ 5.84 to 23.4 µM), an MIC ([11]; Finegoldia magna strain 8) of 1 to 4 µg/mL (≈ 5.84 to 23.4 µM) and an MIC ([11]; Finegoldia magna strain 9) of 1 to 4 µg/mL (≈ 5.84 to 23.4 µM). The MIC ([11]; Finegoldia magna strain 10) was 1 to 4 µg/mL (≈ 5.84 to 23.4 µM), the MIC ([11]; Finegoldia magna strain 11) was 1 to 4 µg/mL (≈ 5.84 to 23.4 µM) and the MIC ([11]; Finegoldia magna strain 12) was < 1 µg/mL. For the same compound, the MIC ([12]; Bacteroides fragilis strain 1) was < 1 µg/mL, the MIC ([12]; Bacteroides fragilis strain 2) was < 1 µg/mL and the MIC ([12]; Bacteroides fragilis strain 3) was < 1 µg/mL. For the same compound, the MIC ([12]; Bacteroides fragilis strain 4) was < 1 µg/mL, the MIC ([12]; Bacteroides fragilis strain 5) was < 1 µg/mL and the MIC ([12]; Bacteroides fragilis strain 6) was < 1 µg/mL. The MIC ([12]; Bacteroides fragilis strain 7) was < 1 µg/mL, the MIC ([12]; Bacteroides fragilis strain 8) was < 1 µg/mL and the MIC ([12]; Bacteroides fragilis strain 9) was < 1 µg/mL. The MIC ([12]; Bacteroides fragilis strain 10) was < 1 µg/mL, the MIC ([12]; Bacteroides fragilis strain 11) was < 1 µg/mL and the MIC ([12]; Bacteroides fragilis strain 12) was < 1 µg/mL. For the same compound, the MIC ([13]; Bacteroides thetaiotaomicron strain 1) was < 1 µg/mL, the MIC ([13]; Bacteroides thetaiotaomicron strain 2) was < 1 µg/mL and the MIC ([13]; Bacteroides thetaiotaomicron strain 3) was 1 to 4 µg/mL (≈ 5.84 to 23.4 µM). The MIC ([13]; Bacteroides thetaiotaomicron strain 4) was 1 to 4 µg/mL (≈ 5.84 to 23.4 µM), the MIC ([13]; Bacteroides thetaiotaomicron strain 5) was 1 to 4 µg/mL (≈ 5.84 to 23.4 µM) and the MIC ([13]; Bacteroides thetaiotaomicron strain 6) was 1 to 4 µg/mL (≈ 5.84 to 23.4 µM). For the same compound, the MIC ([13]; Bacteroides thetaiotaomicron strain 7) was < 1 µg/mL, the MIC ([13]; Bacteroides thetaiotaomicron strain 8) was 1 to 4 µg/mL (≈ 5.84 to 23.4 µM) and the MIC ([13]; Bacteroides thetaiotaomicron strain 9) was < 1 µg/mL. The MIC ([13]; Bacteroides thetaiotaomicron strain 10) was 1 to 4 µg/mL (≈ 5.84 to 23.4 µM) and the MIC ([13]; Bacteroides thetaiotaomicron strain 11) was 1 to 4 µg/mL (≈ 5.84 to 23.4 µM).
